Reference: patent publication US9017645B2, “Homoglutamic acid derivatives” (Piramal Imaging SA, priority 2009, dated 2015)

Tested on: H460 tumor bearing mice
Assay: Biodistribution in H460 tumor bearing mice
Format: in vivo, NMRI (nu/nu) mice
Settings: for summary: urine: in %; for summary: carcass / summary: organs / summary: recovery: in % (unit assumed)
Experimental: Biodistribution in H460 tumor bearing mice. To test the pharmacokinetic properties of (2S)-2-amino-5-[3-[^18F]fluoropropyl]hexanedioic acid, the fluorinated compound was examined in H460 tumor bearing mice. NMRI (nu/nu) mice were inoculated with H460 tumor cells 8 to 10 days before the biodistribution studies. 185 kBq of activity of the fluorinated compound was injected into each mouse. n=3 mice were used at every time point. After injection of the F18-labeled compound, mice were sacrificed at the timepoints indicated. All organs were removed and radioactivity was determined using a γ-counter. […] Clearance of radioactivity takes place via the kidneys, with 67.9% of activity being excreted at 1 h p.i.

[1] = 1 h p.i., H460 tumor bearing mice

## N[C@@H](CCC(CCC[18F])C(=O)O)C(=O)O (stereo partly drawn) [(2S)-2-amino-5-[3-[^18F]fluoropropyl]hexanedioic acid]
[1]
  activity excreted via the kidneys: 67.9%
  uptake in the tumor: 10.29 % injected dose per gram of tumor
4 h p.i., H460 tumor bearing mice
  retention of activity in the tumor: 5.85 % injected dose per gram of tumor
H460 tumor bearing mice
  tumor to blood ratio: 34.7
  tumor to muscle ratio: 62.6
Timepoint 0.25 h
  Tumor/Tissue bone: 18.92
  Tumor/Tissue brain: 58.25
  Tumor/Tissue heart: 17.61
  Tumor/Tissue kidney: 0.60
  Tumor/Tissue muscle: 28.44
  Tumor/Tissue skin: 3.82
  biodistribution adrenals: 1.18 % Dosis/g
  biodistribution blood: 1.36 % Dosis/g
  biodistribution bone: 0.57 % Dosis/g
  biodistribution brain: 0.18 % Dosis/g
  biodistribution fat: 0.25 % Dosis/g
  biodistribution gallbladder: 1.08 % Dosis/g
  biodistribution heart: 0.60 % Dosis/g
  biodistribution intestine: 2.34 % Dosis/g
  biodistribution kidney: 17.49 % Dosis/g
  biodistribution lung: 3.22 % Dosis/g
  biodistribution muscle: 0.37 % Dosis/g
  biodistribution ovaries: 4.04 % Dosis/g
  biodistribution pancreas: 26.85 % Dosis/g
  biodistribution skin: 2.82 % Dosis/g
  biodistribution spleen: 5.15 % Dosis/g
  biodistribution stomach: 10.27 % Dosis/g
  biodistribution tail: 8.12 % Dosis/g
  biodistribution thyroid: 2.05 % Dosis/g
  biodistribution tumor: 10.58 % Dosis/g
  biodistribution uterus: 4.37 % Dosis/g
  summary: urine: 30.17
  summary: carcass: 18.07
  summary: organs: 39.99
  summary: recovery: 88.24
Timepoint 0.5 h
  Tumor/Tissue bone: 15.47
  Tumor/Tissue brain: 69.00
  Tumor/Tissue heart: 34.35
  Tumor/Tissue kidney: 1.43
  Tumor/Tissue muscle: 54.98
  Tumor/Tissue skin: 3.20
  biodistribution adrenals: 0.67 % Dosis/g
  biodistribution blood: 0.45 % Dosis/g
  biodistribution bone: 0.53 % Dosis/g
  biodistribution brain: 0.12 % Dosis/g
  biodistribution fat: 0.18 % Dosis/g
  biodistribution gallbladder: 0.47 % Dosis/g
  biodistribution heart: 0.24 % Dosis/g
  biodistribution intestine: 1.96 % Dosis/g
  biodistribution kidney: 5.64 % Dosis/g
  biodistribution lung: 1.62 % Dosis/g
  biodistribution muscle: 0.15 % Dosis/g
  biodistribution ovaries: 6.23 % Dosis/g
  biodistribution pancreas: 21.26 % Dosis/g
  biodistribution skin: 2.51 % Dosis/g
  biodistribution spleen: 4.37 % Dosis/g
  biodistribution stomach: 7.82 % Dosis/g
  biodistribution tail: 5.67 % Dosis/g
  biodistribution thyroid: 1.58 % Dosis/g
  biodistribution tumor: 8.17 % Dosis/g
  biodistribution uterus: 2.63 % Dosis/g
  summary: faeces: 0%
  summary: urine: 48.69
  summary: carcass: 10.51
  summary: organs: 32.54
  summary: recovery: 91.75
Timepoint 1.0 h
  Tumor/Tissue bone: 22.16
  Tumor/Tissue brain: 93.25
  Tumor/Tissue heart: 57.45
  Tumor/Tissue kidney: 3.31
  Tumor/Tissue muscle: 62.55
  Tumor/Tissue skin: 4.24
  biodistribution adrenals: 0.61 % Dosis/g
  biodistribution blood: 0.30 % Dosis/g
  biodistribution bone: 0.46 % Dosis/g
  biodistribution brain: 0.11 % Dosis/g
  biodistribution fat: 0.14 % Dosis/g
  biodistribution gallbladder: 0.57 % Dosis/g
  biodistribution heart: 0.18 % Dosis/g
  biodistribution intestine: 1.77 % Dosis/g
  biodistribution kidney: 3.10 % Dosis/g
  biodistribution lung: 1.43 % Dosis/g
  biodistribution muscle: 0.16 % Dosis/g
  biodistribution ovaries: 1.86 % Dosis/g
  biodistribution pancreas: 16.68 % Dosis/g
  biodistribution skin: 2.43 % Dosis/g
  biodistribution spleen: 2.87 % Dosis/g
  biodistribution stomach: 4.47 % Dosis/g
  biodistribution tail: 2.33 % Dosis/g
  biodistribution thyroid: 1.57 % Dosis/g
  biodistribution tumor: 10.29 % Dosis/g
  biodistribution uterus: 2.45 % Dosis/g
  summary: faeces: 0%
  summary: urine: 67.90
  summary: carcass: 9.28
  summary: organs: 25.76
  summary: recovery: 102.93
Timepoint 2.0 h
  Tumor/Tissue bone: 18.25
  Tumor/Tissue brain: 87.08
  Tumor/Tissue heart: 54.23
  Tumor/Tissue kidney: 6.15
  Tumor/Tissue muscle: 62.45
  Tumor/Tissue skin: 3.59
  biodistribution adrenals: 0.52 % Dosis/g
  biodistribution blood: 0.15 % Dosis/g
  biodistribution bone: 0.40 % Dosis/g
  biodistribution brain: 0.08 % Dosis/g
  biodistribution fat: 0.07 % Dosis/g
  biodistribution gallbladder: 0.48 % Dosis/g
  biodistribution heart: 0.13 % Dosis/g
  biodistribution intestine: 1.23 % Dosis/g
  biodistribution kidney: 1.17 % Dosis/g
  biodistribution lung: 1.04 % Dosis/g
  biodistribution muscle: 0.11 % Dosis/g
  biodistribution ovaries: 1.58 % Dosis/g
  biodistribution pancreas: 7.70 % Dosis/g
  biodistribution skin: 1.97 % Dosis/g
  biodistribution stomach: 3.35 % Dosis/g
  biodistribution tail: 1.64 % Dosis/g
  biodistribution thyroid: 1.37 % Dosis/g
  biodistribution tumor: 6.72 % Dosis/g
  biodistribution uterus: 2.72 % Dosis/g
  summary: faeces: 0.01%
  summary: urine: 68.67
  summary: carcass: 9.12
  summary: organs: 17.68
  summary: recovery: 94.72
Timepoint 4.0 h
  Tumor/Tissue bone: 15.04
  Tumor/Tissue brain: 83.21
  Tumor/Tissue heart: 68.93
  Tumor/Tissue kidney: 8.78
  Tumor/Tissue muscle: 64.19
  Tumor/Tissue skin: 5.40
  biodistribution adrenals: 0.61 % Dosis/g
  biodistribution blood: 0.10 % Dosis/g
  biodistribution bone: 0.39 % Dosis/g
  biodistribution brain: 0.08 % Dosis/g
  biodistribution fat: 0.06 % Dosis/g
  biodistribution gallbladder: 0.70 % Dosis/g
  biodistribution heart: 0.08 % Dosis/g
  biodistribution intestine: 0.97 % Dosis/g
  biodistribution kidney: 0.72 % Dosis/g
  biodistribution lung: 0.81 % Dosis/g
  biodistribution muscle: 0.09 % Dosis/g
  biodistribution ovaries: 2.18 % Dosis/g
  biodistribution pancreas: 4.51 % Dosis/g
  biodistribution skin: 1.31 % Dosis/g
  biodistribution stomach: 1.27 % Dosis/g
  biodistribution tail: 3.43 % Dosis/g
  biodistribution thyroid: 0.98 % Dosis/g
  biodistribution tumor: 5.85 % Dosis/g
  biodistribution uterus: 1.41 % Dosis/g
  summary: faeces: 2.1%
  summary: urine: 77.27
  summary: carcass: 4.03
  summary: organs: 12.00
  summary: recovery: 94.87
